What was measured:
[1] = molecular target: human vasopressin V1a receptor (Homo sapiens, UniProt P37288); assay: Vasopressin V1a receptor binding assay; conditions: selectivity: quotient of Ki at human V1a and Ki at human V1b
[2] = molecular target: T1, human vasopressin V1b receptor (Homo sapiens, UniProt P47901); assay: Vasopressin V1b receptor binding assay; conditions: membranes from CHO-K1 cells with human V1b receptor, 1.5 nM 3H-AVP
T1 construct: expressed in transfected cells; host or cells: CHO-K1 (clone 3H2; cell line hV1b-3H2_CHO), membrane preparation
T1 sequence (P47901 1-424): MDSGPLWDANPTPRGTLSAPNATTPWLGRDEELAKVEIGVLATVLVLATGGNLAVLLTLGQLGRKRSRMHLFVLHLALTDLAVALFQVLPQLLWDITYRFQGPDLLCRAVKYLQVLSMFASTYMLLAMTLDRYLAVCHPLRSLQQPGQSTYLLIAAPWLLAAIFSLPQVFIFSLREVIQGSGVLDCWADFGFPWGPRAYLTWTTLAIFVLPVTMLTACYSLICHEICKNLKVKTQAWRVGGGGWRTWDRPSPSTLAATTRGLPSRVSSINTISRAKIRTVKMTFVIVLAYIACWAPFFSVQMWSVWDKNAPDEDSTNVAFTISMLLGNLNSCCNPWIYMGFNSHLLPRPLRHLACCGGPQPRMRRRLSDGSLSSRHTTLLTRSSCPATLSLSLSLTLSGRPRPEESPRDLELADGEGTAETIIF
Procedure: 1. Vasopressin V1b Receptor Binding Assay:
The substance concentration was further diluted 1:5 in the assay mixture (2% DMSO in the mixture).
The nonspecific binding was determined with 1 M AVP (Bachem # H1780). All determinations were carried out as triplicate determinations.

[3] = Determination of the microsomal half-life / microsomal clearance; assay type: in vitro ADME; conditions: pH 7.4; human liver microsomes, 0.5 μM test substance, 0.25 mg microsomal protein/ml
Procedure: 5. Determination of the Microsomal Half-Life:
The metabolic stability of the compounds of the invention was determined in the following assay.
The test substances were incubated in a concentration of 0.5 μM as follows: 0.5 μM test substance are preincubated together with liver microsomes from different species (from rat, human or other species) (0.25 mg of microsomal protein/ml) in 0.05 M potassium phosphate buffer of pH 7.4 in microtiter plates at 37° C. for 5 min. The reaction is started by adding NADPH (1 mg/mL). After 0, 5, 10, 15, 20 and 30 min, 50 μl aliquots are removed, and the reaction is immediately stopped and cooled with the same volume of acetonitrile. The samples are frozen until analyzed. The remaining concentration of undegraded test substance is determined by MSMS. The half-life (T½) is determined from the gradient of the signal of test substance/unit time plot, it being possible to calculate the half-life of the test substance, assuming first order kinetics, from the decrease in the concentration of the compound with time. The microsomal clearance (mCl) is calculated from mCl=In2/T½/(content of microsomal protein in mg/ml)×1000 […] (modified from references: Di, The Society for Biomoleculur Screening, 2003, 453-462; Obach, DMD, 1999 vol 27. N 11, 1350-1359).

human vasopressin V1a receptor, sequence (P37288 whole entry): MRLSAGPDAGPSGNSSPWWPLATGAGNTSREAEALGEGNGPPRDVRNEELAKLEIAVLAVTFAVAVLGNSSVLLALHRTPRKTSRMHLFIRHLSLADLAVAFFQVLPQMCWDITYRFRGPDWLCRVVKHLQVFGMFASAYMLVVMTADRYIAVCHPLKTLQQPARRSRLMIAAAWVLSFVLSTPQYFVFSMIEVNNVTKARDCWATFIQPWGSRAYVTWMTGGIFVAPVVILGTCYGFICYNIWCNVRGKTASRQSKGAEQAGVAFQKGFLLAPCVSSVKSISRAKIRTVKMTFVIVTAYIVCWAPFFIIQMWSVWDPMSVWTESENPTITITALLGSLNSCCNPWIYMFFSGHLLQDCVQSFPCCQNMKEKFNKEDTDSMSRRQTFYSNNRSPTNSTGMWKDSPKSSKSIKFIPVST

Ki(h-V1a)/Ki(h-V1b) [1]: +++ (>75)
Ki [2]: < 1 nM
microsomal CLint at 0.5 μM [3]: 75 to 100 µL/min/mg
Compound: CCOc1ncccc1C1(NC(=O)N2CCC(N3CCN(CC)CC3)CC2)C(=O)N(S(=O)(=O)c2ccc(OC)cc2OC)c2ccc(Cl)cc21 (single isomer, unassigned; (+)) [Example 8B, (+)-4-(4-Ethylpiperazin-1-yl)piperidine-1-[5-chloro-1-(2,4-dimethoxyphenylsulfonyl)-3-(2-ethoxypyridin-3-yl)-2-oxo-2,3-dihydro-1H-indol-3-yl]carboxamide]

From patent US20150158845A1, “5-HALOGEN-SUBSTITUTED OXINDOLE DERIVATIVES AND USE THEREOF FOR TREATING VASOPRESSIN-DEPENDENT DISEASES” (ABBVIE DEUTSCHLAND GMBH & CO. KG, priority 2007, published 2015)
